{
  "source": "patent US9260759B2",
  "about": "“Pyrazoloanthrone and derivatives thereof for the treatment of cancers expressing MISRII” (The General Hospital Corporation, priority 2007, dated 2016)",
  "assay_type_in_all_cases": "cell-based",
  "key": {"[1]": {"target": "T1, rat MISRII (Rattus norvegicus, UniProt Q62893)", "T1 construct": "expressed in transfected cells; host or cells: COS7", "T1 sequence (Q62893 18-557)": "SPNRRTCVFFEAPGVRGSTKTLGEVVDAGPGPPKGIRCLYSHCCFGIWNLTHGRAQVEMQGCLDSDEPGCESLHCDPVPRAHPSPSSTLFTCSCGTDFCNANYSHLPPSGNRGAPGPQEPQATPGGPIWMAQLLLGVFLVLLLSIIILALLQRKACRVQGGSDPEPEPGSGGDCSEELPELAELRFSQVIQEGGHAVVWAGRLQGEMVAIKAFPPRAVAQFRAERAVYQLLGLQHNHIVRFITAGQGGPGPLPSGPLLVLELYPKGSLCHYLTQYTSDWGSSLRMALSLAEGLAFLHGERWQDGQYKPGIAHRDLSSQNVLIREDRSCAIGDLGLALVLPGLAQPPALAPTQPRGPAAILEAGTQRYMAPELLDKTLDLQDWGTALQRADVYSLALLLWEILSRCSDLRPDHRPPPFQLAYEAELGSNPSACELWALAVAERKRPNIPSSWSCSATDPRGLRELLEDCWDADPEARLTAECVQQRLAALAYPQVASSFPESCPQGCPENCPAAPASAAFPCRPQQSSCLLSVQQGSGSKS", "test": "BRE-luciferase reporter assay in COS7 cells transfected with MISRII", "conditions": "for BRE-luciferase induction, MIS plus SP600125: COS7, 24 h", "excerpt": "COS7 cells were transiently transfected with MISRH, BRE-Luciferase and phRL-CMV. […] Control cells were transfected with a control plasmid (EGFP-N1 plasmid) instead of the receptor plasmid to keep the total DNA transfected constant. The results shown are the fold-induction over vehicle treated cells and normalized to phRL-CMV expression to correct for variations in cell number and transfection efficiency. […] The results represent the mean values from three independent experiments performed in triplicates (Error bars represent SEM, *p<0.05, **p<0.001).\nTo identify molecules that interact with the MISRII, we developed a reporter assay where binding to MISRII activates a firefly luciferase reporter driven by the BMP-responsive element (BRE) promoter kindly provided by Dr. Peter ten Dijke (The Netherlands Cancer Institute, The Netherlands) The BMP promoter region on mouse M. mus is located on chromosome 2 (Chr2) and corresponds to RefSeq No: NT—039207.6 93504644-93506272 (SEQ ID NO:1). The BRE-luciferase reporter (Korchynskyi and ten Dijke, 2002, Logeart-Avramoglou, 2006) has multiple optimized BMP response elements (3 SBE, 7 GC, and 4 CAGC) driving the expression of the firefly luciferase. This reporter construct together with a control Renilla luciferase reporter phRL-CMV (Promega, Madison Wis.) and a rat MISRII cDNA expression construct (Teixeira, 1996) were transiently transfected into COST cells and plated in 384 well plates. Primary screens were performed at the Harvard Institute of Chemistry and Cell Biology screening facility. Compounds from chosen libraries were added at a volume of 100 nl at 5 mg/ml concentration in DMSO into 30 μl cell media and cultured for 24 h at 37° C., after which the luciferase activity was measured with reagents from Promega according to the manufacturer's instructions. A hit was identified as causing a fold induction over the plate median and each compound was tested in duplicate in separate plates. MIS was used to control for intra- and inter-assay variability.\nCOS7 cells were plated at a density of 5000 cells/well in 96-well plates for secondary screens. The day after plating cells were transfected with rat MISRII receptor or EGFP-N1 (Clontech, Mountain View Calif.) together with BRE firefly luciferase reporter construct and phRL-CMV using TransIT-LT1 transfection reagent (Mirus Bio Corporation, Madison Wis.). […] Results were obtained using the Dual Luciferase reporter assay according to the manufacturer's instructions (Promega). Plates were read in a Wallac Victor2 luminometer (PerkinElmer, Wellesley Mass.)."}, "[2]": {"test_system": "COS7 cells", "test": "MTT proliferation assay, untransfected COS7 cells (negative control)", "conditions": "Chlorocebus aethiops, COS-7, 168 h, 7 days, read-out: IC50, inhibition of cell proliferation", "method": "Cells were plated in 96-well plates and treated the day after. Seven days after plating the cell survival was measured using 3-(4,5-dimethylthiazol-2-yl)-2,5-diphenyltetrazolium bromide substrate and measuring the absorbance at 550 nm.\n(§1) (Connolly, 2003). The 4306 cells were provided by Dr. Daniela Dinulescu, Brigham and Women's (Boston) (30). Cells were plated at a density of 1000 cells/well in 96-well plates and treated 24 h later. The cell proliferation was measured after 7 days by registering the absorbance at 550 nm. Paclitaxel was manufactured by Ivax Pharmaceuticals and obtained from the MGH pharmacy.\nThe cells were treated for 7 days and the proliferation was measured by spectrophotometry. To exclude cytotoxic effects on the cells unrelated to MIS signal transduction, we used untransfected COS7 cells as a negative control. […] Paclitaxel is used in treatment of a wide range of tumors, but the side effects can be debilitating (Pieretti-Vanmarcke, 2006a, Pieretti-Vanmarcke, 2006b)."}, "[3]": {"test_system": "4306 cells", "test": "MTT proliferation assay, 4306 cells", "conditions": "Mus musculus", "method": "Cells were plated in 96-well plates and treated the day after. Seven days after plating the cell survival was measured using 3-(4,5-dimethylthiazol-2-yl)-2,5-diphenyltetrazolium bromide substrate and measuring the absorbance at 550 nm. […] The results shown are the mean values from three independent experiments. (Error bars represent SEM, ***p<0.001). […] Significant differences (P<0.05) in FIG. 4C were determined by one-way factorial ANOVA.\nas §1"}, "[4]": {"test_system": "cancer cells", "test": "Apoptosis of cancer cells", "conditions": "2-5 μM as compared with 10-20 μM", "excerpt": "Paclitaxel has been used in the treatment of a wide range of tumors, including ovarian, breast, and prostate. It exerts its effect by targeting the microtubules and arresting the cells in G2/M phase, leading to the induction of apoptosis (Bhalla et al, 2003, Oncogene 22:9075-908645). […] Additionally, paclitaxel is thought to exert a biphasic apoptosis effect through a p53-dependent pathway that induces apoptosis at lower concentrations, whereas at higher concentrations, it inhibits p53 expression in an […] carcinoma cell line (Tan et al., 2002; Int J Cancer 97:168-172)."}, "[5]": {"conditions": "5 uM SP600125 with 0.5 ug/ml MIS"}},
  "data": [
    {"smiles": "O=C1c2ccccc2-c2n[nH]c3cccc1c23", "note": "[SP600125, anthra[1,9-cd]pyrazol-6(2H)-one]", "values": [
      {"measurement": "additional induction over MIS alone", "setting": "[1]; [5]", "result": "six-fold"},
      {"measurement": "BRE-luciferase induction, MIS plus SP600125", "setting": "[1]; [5]", "result": "approximately 16 fold"},
      {"measurement": "time course of luciferase activity, cotreatment over each treatment alone", "setting": "[1]; 10 uM SP600125 and 0.5 ug/ml MIS, after 6 h through 48 h", "result": "maintain their synergistic effect"},
      {"measurement": "BRE-luciferase induction, MIS plus SP600125", "setting": "[1]; 10 uM SP600125 with 0.5 ug/ml MIS", "result": 22, "unit": "fold"},
      {"measurement": "BRE-luciferase induction, MIS plus SP600125", "setting": "[1]; 25 uM SP600125 with 0.5 ug/ml MIS", "result": 25, "unit": "fold"},
      {"measurement": "interaction of MIS and SP600125 on activation of BRE-luciferase (two-way ANOVA)", "setting": "[1]; combined compared with either alone, COS7", "result": "synergistic effect"},
      {"measurement": "IC50", "setting": "[2]", "result": 9.5, "unit": "µM"},
      {"measurement": "inhibition at 2 µM", "setting": "[3]", "result": 50, "unit": "%"},
      {"measurement": "apoptosis", "setting": "[4]", "result": "did not result in apoptosis"}
    ]}
  ]
}
